The values below are quoted from earlier work in patent US20200146297A1, “FAST SYMPTOM HERBICIDAL COMPOSITIONS CONTAINING AN ORGANO[…], BI[…] A[…] SURFACTANT” (Monsanto Technology LLC, priority 2016, published 2020).

The conditions of data set [1]: known to decompose.
The next data set relates to plant. The settings on record: after treatment.

For `c1cc[n+]2c(c1)-c1cccc[n+]1CC2` [Diquat dibromide], the “pH at which decomposition occurs” value in data set [1] is given as “greater than 7”.

Turning to `O=C(O)CNCP(=O)(O)O` [glyphosate, N-(phosphonomethyl)glycine], the “time until visual symptoms of treatment appear” value in the data set on plant is listed as “one week or more”.
